In US10758534B2 (Vertex Pharmaceuticals Incorporated, priority 2014, dated 2020):

Target: T1, F508del (Homo sapiens, UniProt P13569, DEL508-508)
T1 construct: expressed in transfected cells
Experiment: Protocol 1: membrane potential optical assay (FLIPR III, voltage sensing dye), identification of potentiator compounds
Assay type: cell-based
Settings: Table 3, compounds of Table 1
Method in brief: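 Membrane potential in forskolin-activated, temperature-rescued F508del NIH 3T3 cells is followed with a voltage-sensing dye on FLIPR III. A chloride ion gradient created at the single addition step provides the driving force, after prior compound treatment.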

T1 sequence (P13569 with tags, fused parts or gaps DEL508-508): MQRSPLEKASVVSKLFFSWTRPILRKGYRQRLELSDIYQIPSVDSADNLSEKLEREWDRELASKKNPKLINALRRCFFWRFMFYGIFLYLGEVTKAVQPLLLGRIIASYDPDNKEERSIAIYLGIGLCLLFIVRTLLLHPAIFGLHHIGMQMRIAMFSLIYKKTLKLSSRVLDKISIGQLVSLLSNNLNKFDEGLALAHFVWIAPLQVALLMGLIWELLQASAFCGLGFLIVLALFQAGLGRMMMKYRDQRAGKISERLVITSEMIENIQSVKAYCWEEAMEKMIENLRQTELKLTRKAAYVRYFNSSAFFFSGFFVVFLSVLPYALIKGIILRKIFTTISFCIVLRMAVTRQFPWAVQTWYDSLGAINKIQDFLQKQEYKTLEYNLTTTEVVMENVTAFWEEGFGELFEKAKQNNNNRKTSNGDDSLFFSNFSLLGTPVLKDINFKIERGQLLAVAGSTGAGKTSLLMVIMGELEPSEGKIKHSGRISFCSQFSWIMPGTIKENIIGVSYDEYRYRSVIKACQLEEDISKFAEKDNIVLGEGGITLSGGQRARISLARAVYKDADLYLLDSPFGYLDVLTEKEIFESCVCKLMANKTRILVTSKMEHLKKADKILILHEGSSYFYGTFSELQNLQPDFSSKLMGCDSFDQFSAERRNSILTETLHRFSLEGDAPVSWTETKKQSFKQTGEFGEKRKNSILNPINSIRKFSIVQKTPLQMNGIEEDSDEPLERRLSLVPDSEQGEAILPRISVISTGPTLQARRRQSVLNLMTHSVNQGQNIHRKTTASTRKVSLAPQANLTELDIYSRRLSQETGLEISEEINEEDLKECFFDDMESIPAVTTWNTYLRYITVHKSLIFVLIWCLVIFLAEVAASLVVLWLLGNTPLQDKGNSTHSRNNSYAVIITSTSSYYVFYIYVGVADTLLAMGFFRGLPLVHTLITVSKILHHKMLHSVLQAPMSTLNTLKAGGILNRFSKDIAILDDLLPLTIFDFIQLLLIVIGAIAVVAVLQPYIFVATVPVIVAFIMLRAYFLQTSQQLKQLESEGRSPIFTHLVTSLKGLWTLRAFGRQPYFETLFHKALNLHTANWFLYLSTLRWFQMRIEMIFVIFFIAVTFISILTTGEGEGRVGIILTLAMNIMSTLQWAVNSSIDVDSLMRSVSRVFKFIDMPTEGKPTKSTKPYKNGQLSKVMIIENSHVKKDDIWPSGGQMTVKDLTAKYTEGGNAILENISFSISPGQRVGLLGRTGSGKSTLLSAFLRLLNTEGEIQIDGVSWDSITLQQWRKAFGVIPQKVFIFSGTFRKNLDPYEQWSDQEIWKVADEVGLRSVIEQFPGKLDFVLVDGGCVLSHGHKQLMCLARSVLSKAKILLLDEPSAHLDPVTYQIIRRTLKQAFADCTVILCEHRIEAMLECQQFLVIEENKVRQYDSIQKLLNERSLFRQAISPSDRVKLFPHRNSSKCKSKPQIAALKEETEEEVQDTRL

Structure (SMILES): CC(C)COc1cc(F)cc(-c2ccc(C(=O)NS(=O)(=O)c3cccc(N)n3)c(OCC3(C)CC3)n2)c1 [Compound 1668, N-[(6-amino-2-pyridyl)sulfonyl]-6-(3-fluoro-5-isobutoxy-phenyl)-2-[(1-methylcyclopropyl)methoxy]pyridine-3-carboxamide]
- EC30: +++ (“+++” means <3 uM)

Structure (SMILES): CCOc1cccc2c1CN(Cc1c(C)cc(C)cc1C)C2(C)C(=O)NS(=O)(=O)c1cccnc1 (stereo not shown) [Compound 1669, 4-ethoxy-1-methyl-N-(3-pyridylsulfonyl)-2-[(2,4,6-trimethylphenyl)methyl]isoindoline-1-carboxamide]
- EC30: +++ (“+++” means <3 uM)

Structure (SMILES): Cc1cc(C)c(Cn2nc(C(C)(C)C)cc2C(=O)NS(=O)(=O)c2ccc(CN)cc2)c(C)c1 [Compound 1670, N-[4-(aminomethyl)phenyl]sulfonyl-5-tert-butyl-2-[(2,4,6-trimethylphenyl)methyl]pyrazole-3-carboxamide]
- EC30: ++ (“++” means between 3 uM and 10 uM)

Structure (SMILES): Cc1cc(OC(C)C)cc(-c2ccc(C(=O)NS(=O)(=O)c3cccc(N)n3)c(N3C[C@@H](C)CC3(C)C)n2)c1 [Compound 1671, N-[(6-amino-2-pyridyl)sulfonyl]-6-(3-isopropoxy-5-methyl-phenyl)-2-[(4S)-2,2,4-trimethylpyrrolidin-1-yl]pyridine-3-carboxamide]
- EC30: +++ (“+++” means <3 uM)

Structure (SMILES): C[C@@H]1CN(c2nc(C3CCC(C(F)(F)F)CC3)ccc2C(=O)NS(=O)(=O)c2cccc(N)n2)C(C)(C)C1 (stereo partly drawn) [Compound 1672, N-[(6-amino-2-pyridyl)sulfonyl]-6-[4-(trifluoromethyl)cyclohexyl]-2-[(4S)-2,2,4-trimethylpyrrolidin-1-yl]pyridine-3-carboxamide]
- EC30: +++ (“+++” means <3 uM)

Structure (SMILES): C[C@@H]1CN(c2nc(N3C[C@@H](C)CC3(C)C)c(C(=O)NS(=O)(=O)c3cccc(N)n3)cc2F)C(C)(C)C1 [Compound 1673, N-[(6-amino-2-pyridyl)sulfonyl]-5-fluoro-2,6-bis[(4S)-2,2,4-trimethylpyrrolidin-1-yl]pyridine-3-carboxamide]
- EC30: +++ (“+++” means <3 uM)

Structure (SMILES): CC(C)Oc1cc(-c2ccc(C(=O)NS(=O)(=O)c3cccc(N)n3)c(N3C[C@@H](C)CC3(C)C)n2)cc(C(F)(F)F)c1 [Compound 1674, N-[(6-amino-2-pyridyl)sulfonyl]-6-[3-isopropoxy-5-(trifluoromethyl)phenyl]-2-[(4S)-2,2,4-trimethylpyrrolidin-1-yl]pyridine-3-carboxamide]
- EC30: +++ (“+++” means <3 uM)

Structure (SMILES): CC(C)COc1cc(F)cc(-c2ccc(C(=O)NS(=O)(=O)c3cccc(N)n3)c(N3CC(C)(C)OCC3(C)C)n2)c1 [Compound 1675, N-[(6-amino-2-pyridyl)sulfonyl]-6-(3-fluoro-5-isobutoxy-phenyl)-2-(2,2,5,5-tetramethylmorpholin-4-yl)pyridine-3-carboxamide]
- EC30: ++ (“++” means between 3 uM and 10 uM)

Structure (SMILES): CCOc1cccc2c1CN(Cc1c(C)cccc1C)C2(C)C(=O)NS(=O)(=O)c1cccc(F)n1 (stereo not shown) [Compound 1676, 2-[(2,6-dimethylphenyl)methyl]-4-ethoxy-N-[(6-fluoro-2-pyridyl)sulfonyl]-1-methyl-isoindoline-1-carboxamide]
- EC30: +++ (“+++” means <3 uM)

Structure (SMILES): C[C@@H]1CN(c2nc(CCC3CC3)ccc2C(=O)NS(=O)(=O)c2cccc(N)n2)C(C)(C)C1 [Compound 1677, N-[(6-amino-2-pyridyl)sulfonyl]-6-(2-cyclopropylethyl)-2-[(4S)-2,2,4-trimethylpyrrolidin-1-yl]pyridine-3-carboxamide]
- EC30: +++ (“+++” means <3 uM)

Structure (SMILES): Cc1cccc(C)c1Cn1nc(-c2cnc(N(C)C)nc2)cc1C(=O)NS(=O)(=O)c1ccccc1 [Compound 1678, N-(benzenesulfonyl)-5-[2-(dimethylamino)pyrimidin-5-yl]-2-[(2,6-dimethylphenyl)methyl]pyrazole-3-carboxamide]
- EC30: + (“+” means greater than 10 uM)

Structure (SMILES): C[C@@H]1CC[C@H](C)N1c1nc(-c2ccc(OC(F)F)nc2)ccc1C(=O)NS(=O)(=O)c1cccc(N)n1 [Compound 1679, N-[(6-amino-2-pyridyl)sulfonyl]-6-[6-(difluoromethoxy)-3-pyridyl]-2-[(2S,5R)-2,5-dimethylpyrrolidin-1-yl]pyridine-3-carboxamide]
- EC30: +++ (“+++” means <3 uM)

Structure (SMILES): CC(C)COc1cc(F)cc(-c2ccc(C(=O)NS(=O)(=O)c3cccc(N)n3)c(OCCC3CCCCO3)n2)c1 (stereo not shown) [Compound 1680, N-[(6-amino-2-pyridyl)sulfonyl]-6-(3-fluoro-5-isobutoxy-phenyl)-2-(2-tetrahydropyran-2-ylethoxy)pyridine-3-carboxamide]
- EC30: +++ (“+++” means <3 uM)

Structure (SMILES): CCOc1cccc2c1CN(Cc1cc(F)cc(OCC(C)C)c1)C2(C)C(=O)NS(=O)(=O)c1cccc(N)n1 (stereo not shown) [Compound 1681, N-[(6-amino-2-pyridyl)sulfonyl]-4-ethoxy-2-[(3-fluoro-5-isobutoxy-phenyl)methyl]-1-methyl-isoindoline-1-carboxamide]
- EC30: +++ (“+++” means <3 uM)

Structure (SMILES): CC(C)CC/C=C/c1cc(C(=O)NS(=O)(=O)c2cccc(N)n2)c(N2C[C@@H](C)CC2(C)C)nc1C(C)(C)C [Compound 1682, N-[(6-amino-2-pyridyl)sulfonyl]-6-tert-butyl-5-[(E)-5-methylhex-1-enyl]-2-[(4S)-2,2,4-trimethylpyrrolidin-1-yl]pyridine-3-carboxamide]
- EC30: +++ (“+++” means <3 uM)

Structure (SMILES): CC(C)=Cc1ccc(C(=O)NS(=O)(=O)c2cccc(N)n2)c(N2C[C@@H](C)CC2(C)C)n1 [Compound 1683, N-[(6-amino-2-pyridyl)sulfonyl]-6-(2-methylprop-1-enyl)-2-[(4S)-2,2,4-trimethylpyrrolidin-1-yl]pyridine-3-carboxamide]
- EC30: +++ (“+++” means <3 uM)

Structure (SMILES): C[C@@H]1CN(c2nc(C3=CN(C(=O)OC(C)(C)C)CC3)ccc2C(=O)NS(=O)(=O)c2cccc(N)n2)C(C)(C)C1 [Compound 1684, tert-butyl 4-[5-[(6-amino-2-pyridyl)sulfonylcarbamoyl]-6-[(4S)-2,2,4-trimethylpyrrolidin-1-yl]-2-pyridyl]-2,3-dihydropyrrole-1-carboxylate]
- EC30: +++ (“+++” means <3 uM)

Structure (SMILES): CC(C)COc1cc(F)cc(-c2ccc(C(=O)NS(=O)(=O)c3cccc(N)n3)c(OCCC3CC3)n2)c1 [Compound 1685, N-[(6-amino-2-pyridyl)sulfonyl]-2-(2-cyclopropylethoxy)-6-(3-fluoro-5-isobutoxy-phenyl)pyridine-3-carboxamide]
- EC30: +++ (“+++” means <3 uM)

Structure (SMILES): CC(C)COc1cc(F)cc(-c2ccc(C(=O)NS(=O)(=O)c3cccc(N)n3)c(OCCCCc3ccccc3)n2)c1 [Compound 1686, N-[(6-amino-2-pyridyl)sulfonyl]-6-(3-fluoro-5-isobutoxy-phenyl)-2-(4-phenylbutoxy)pyridine-3-carboxamide]
- EC30: +++ (“+++” means <3 uM)

Structure (SMILES): CC(C)COc1cc(F)cc(-c2ccc(C(=O)NS(=O)(=O)c3cccc(N)n3)c(OCCCCc3ccncc3)n2)c1 [Compound 1687, N-[(6-amino-2-pyridyl)sulfonyl]-6-(3-fluoro-5-isobutoxy-phenyl)-2-[4-(4-pyridyl)butoxy]pyridine-3-carboxamide]
- EC30: +++ (“+++” means <3 uM)

Structure (SMILES): CC(C)COc1cc(F)cc(-c2ccc(C(=O)NS(=O)(=O)c3cccc(N)n3)c(OCCCCc3ccccn3)n2)c1 [Compound 1688, N-[(6-amino-2-pyridyl)sulfonyl]-6-(3-fluoro-5-isobutoxy-phenyl)-2-[4-(2-pyridyl)butoxy]pyridine-3-carboxamide]
- EC30: +++ (“+++” means <3 uM)

Structure (SMILES): CC(C)COc1cc(F)cc(-c2ccc(C(=O)NS(=O)(=O)c3cccc(N)n3)c(OCCC(C)c3ccccc3)n2)c1 (stereo not shown) [Compound 1689, N-[(6-amino-2-pyridyl)sulfonyl]-6-(3-fluoro-5-isobutoxy-phenyl)-2-(3-phenylbutoxy)pyridine-3-carboxamide]
- EC30: +++ (“+++” means <3 uM)

Structure (SMILES): CC(C)COc1cc(F)cc(-c2ccc(C(=O)NS(=O)(=O)c3cccc(N)n3)c(OCCCCc3cccnc3)n2)c1 [Compound 1690, N-[(6-amino-2-pyridyl)sulfonyl]-6-(3-fluoro-5-isobutoxy-phenyl)-2-[4-(3-pyridyl)butoxy]pyridine-3-carboxamide]
- EC30: +++ (“+++” means <3 uM)

Structure (SMILES): CC(C)COc1cc(F)cc(-c2ccc(C(=O)NS(=O)(=O)c3cccc(N)n3)c(OCCCc3cccnc3)n2)c1 [Compound 1691, N-[(6-amino-2-pyridyl)sulfonyl]-6-(3-fluoro-5-isobutoxy-phenyl)-2-[3-(3-pyridyl)propoxy]pyridine-3-carboxamide]
- EC30: ++ (“++” means between 3 uM and 10 uM)

Structure (SMILES): CC(C)COc1cc(F)cc(-c2ccc(C(=O)NS(=O)(=O)c3cccc(N)n3)c(OCCCn3cccn3)n2)c1 [Compound 1692, N-[(6-amino-2-pyridyl)sulfonyl]-6-(3-fluoro-5-isobutoxy-phenyl)-2-(3-pyrazol-1-ylpropoxy)pyridine-3-carboxamide]
- EC30: ++ (“++” means between 3 uM and 10 uM)

Structure (SMILES): CC(C)COc1cc(F)cc(-c2ccc(C(=O)NS(=O)(=O)c3cccc(N)n3)c(OCCCc3ccccn3)n2)c1 [Compound 1693, N-[(6-amino-2-pyridyl)sulfonyl]-6-(3-fluoro-5-isobutoxy-phenyl)-2-[3-(2-pyridyl)propoxy]pyridine-3-carboxamide]
- EC30: +++ (“+++” means <3 uM)

Structure (SMILES): CC(C)COc1cc(F)cc(-c2ccc(C(=O)NS(=O)(=O)c3cccc(N)n3)c(OCCCc3ccccc3)n2)c1 [Compound 1694, N-[(6-amino-2-pyridyl)sulfonyl]-6-(3-fluoro-5-isobutoxy-phenyl)-2-(3-phenylpropoxy)pyridine-3-carboxamide]
- EC30: +++ (“+++” means <3 uM)

Structure (SMILES): Cc1cc(-c2ccc(C(=O)NS(=O)(=O)c3cccnc3N)c(N3C[C@@H](C)CC3(C)C)n2)cnc1OCCOC(C)C [Compound 1695, N-[(2-amino-3-pyridyl)sulfonyl]-6-[6-(2-isopropoxyethoxy)-5-methyl-3-pyridyl]-2-[(4S)-2,2,4-trimethylpyrrolidin-1-yl]pyridine-3-carboxamide]
- EC30: +++ (“+++” means <3 uM)
